In publication PMC3694096, “Development of Novel In Vivo Chemical Probes to Address CNS Protein Kinase Involvement in Synaptic Dysfunction” (PLoS ONE, 2013):
≈ marks a conversion by molar mass, not a printed value. Like-named read-outs stand apart in the source and are kept apart here.

Assays:
[1] = target: T1, Met(M1268T) (Homo sapiens, UniProt P08581, M1250T); experiment: Kinome profiler screen; type: biochemical; conditions: at 20,000 nM inhibitor; kinase activity remaining
T1 construct: purchased Millipore KinaseProfiler

[2] = target: T2, CLK3 (Homo sapiens, UniProt P49761); experiment: Kinome profiler screen; type: biochemical; conditions: at 20,000 nM inhibitor; kinase activity remaining
T2 construct: purchased Millipore KinaseProfiler

[3] = target: T3, IR (Homo sapiens, UniProt P06213); experiment: Kinome profiler screen; type: biochemical; conditions: at 20,000 nM inhibitor; kinase activity remaining
T3 construct: purchased Millipore KinaseProfiler

[4] = target: T4, BRK (Homo sapiens, UniProt Q13882); experiment: Kinome profiler screen; type: biochemical; conditions: at 20,000 nM inhibitor; kinase activity remaining
T4 construct: purchased Millipore KinaseProfiler

[5] = target: T5, PDGFRα (Homo sapiens, UniProt P16234); experiment: Kinome profiler screen; type: biochemical; conditions: at 20,000 nM inhibitor; kinase activity remaining
T5 construct: purchased Millipore KinaseProfiler

[6] = test system: contextual and cued learning; experiment: Fear conditioning, Aβ42-infused mice; type: in vivo, C57BL/6J mice; conditions: for cued learning: 24 hrs after contextual learning, control test; for contextual fear memory deficit: Aβ42-infused mice
[7] = target: T6, eEF-2K (Homo sapiens, UniProt O00418); experiment: Kinome profiler screen; type: biochemical; conditions: at 20,000 nM inhibitor; kinase activity remaining
T6 construct: purchased Millipore KinaseProfiler

[8] = target: T7, EphA5 (Homo sapiens, UniProt P54756); experiment: Kinome profiler screen; type: biochemical; conditions: at 20,000 nM inhibitor; kinase activity remaining
T7 construct: purchased Millipore KinaseProfiler

[9] = target: T8, Lyn (Homo sapiens, UniProt P07948); experiment: Kinome profiler screen; type: biochemical; conditions: at 20,000 nM inhibitor; kinase activity remaining
T8 construct: purchased Millipore KinaseProfiler

[10] = target: T9, NEK7 (Homo sapiens, UniProt Q8TDX7); experiment: Kinome profiler screen; type: biochemical; conditions: at 20,000 nM inhibitor; kinase activity remaining
T9 construct: purchased Millipore KinaseProfiler

[11] = target: T10, DRAK1 (Homo sapiens, UniProt Q9UEE5); experiment: Kinome profiler screen; type: biochemical; conditions: at 20,000 nM inhibitor; kinase activity remaining
T10 construct: purchased Millipore KinaseProfiler

[12] = target: T11, PrKX (Homo sapiens, UniProt P51817); experiment: Kinome profiler screen; type: biochemical; conditions: at 20,000 nM inhibitor; kinase activity remaining
T11 construct: purchased Millipore KinaseProfiler

[13] = target: T12, CDK2/cyclinE (Homo sapiens, UniProt P24941); experiment: Kinome profiler screen; type: biochemical; conditions: at 20,000 nM inhibitor; kinase activity remaining
T12 construct: purchased Millipore KinaseProfiler

[14] = target: T13, MST1 (Homo sapiens, UniProt Q13043); experiment: Kinome profiler screen; type: biochemical; conditions: at 20,000 nM inhibitor; kinase activity remaining
T13 construct: purchased Millipore KinaseProfiler

[15] = target: T14, FGFR3 (Homo sapiens, UniProt P22607); experiment: Kinome profiler screen; type: biochemical; conditions: at 20,000 nM inhibitor; kinase activity remaining
T14 construct: purchased Millipore KinaseProfiler

[16] = target: T15, Plk3 (Homo sapiens, UniProt Q9H4B4); experiment: Kinome profiler screen; type: biochemical; conditions: at 20,000 nM inhibitor; kinase activity remaining
T15 construct: purchased Millipore KinaseProfiler

[17] = target: T16, TAO3 (Homo sapiens, UniProt Q9H2K8); experiment: Kinome profiler screen; type: biochemical; conditions: at 20,000 nM inhibitor; kinase activity remaining
T16 construct: purchased Millipore KinaseProfiler

[18] = target: T17, IRAK1 (Homo sapiens, UniProt P51617); experiment: Kinome profiler screen; type: biochemical; conditions: at 20,000 nM inhibitor; kinase activity remaining
T17 construct: purchased Millipore KinaseProfiler

[19] = target: T18, PKCδ (Homo sapiens, UniProt Q05655); experiment: Kinome profiler screen; type: biochemical; conditions: at 20,000 nM inhibitor; kinase activity remaining
T18 construct: purchased Millipore KinaseProfiler

[20] = target: T19, ULK3 (Homo sapiens, UniProt Q6PHR2); experiment: Kinome profiler screen; type: biochemical; conditions: at 20,000 nM inhibitor; kinase activity remaining
T19 construct: purchased Millipore KinaseProfiler

[21] = target: T20, PKBβ (Homo sapiens, UniProt P31751); experiment: Kinome profiler screen; type: biochemical; conditions: at 20,000 nM inhibitor; kinase activity remaining
T20 construct: purchased Millipore KinaseProfiler

[22] = Aqueous solubility; type: physicochemical; conditions: for solubility at 24 h: water, 37 °C, thermodynamic from solid
Protocol: Aqueous solubility (logS) and chemical stability were determined as previously described. Briefly, solutions for aqueous solubility (log S) determination were made by gravimetric methods using a Sartorius AG (Germany) BP 211 D analytical balance. Dry borosilicate capillary tubes (Büchi, Switzerland) were weighed and various amounts of compound (ranging from 1.2–1.5 mg) or the hydrochloride hydrate form (ranging from 10–20 mg) were added to the tared tubes, then water added to create solutions ranging in concentrations from […]. Tubes containing the samples were mixed to ensure wetting and incubated at 37°C for 24 h. Aliquots were collected from each tube, centrifuged at 12,000 g-min, and analyzed by HPLC. Concentrations were calculated using area under the peak (260 nm) at the appropriate retention time relative to a standard curve obtained from serial dilutions of each purified compound. […]. The co-solvent was methanol, experimental pH range was 1.7–10.0, temperature was 22±2°C, ionic strength was 0.15 M KCl. Five titrations were used to calculate the pKa using the Yasuda-Shedlovsky technique. […].

[23] = target: T21, Met(D1246H) (Homo sapiens, UniProt P08581, D1228H); experiment: Kinome profiler screen; type: biochemical; conditions: at 20,000 nM inhibitor; kinase activity remaining
T21 construct: purchased Millipore KinaseProfiler

[24] = target: T22, CHK2(R145W) (Homo sapiens, UniProt O96017, R145W); experiment: Kinome profiler screen; type: biochemical; conditions: at 20,000 nM inhibitor; kinase activity remaining
T22 construct: purchased Millipore KinaseProfiler

[25] = target: T23, cKit (Homo sapiens, UniProt P10721); experiment: Kinome profiler screen; type: biochemical; conditions: at 20,000 nM inhibitor; kinase activity remaining
T23 construct: purchased Millipore KinaseProfiler

[26] = target: T24, PASK (Homo sapiens, UniProt Q96RG2); experiment: Kinome profiler screen; type: biochemical; conditions: at 20,000 nM inhibitor; kinase activity remaining
T24 construct: purchased Millipore KinaseProfiler

[27] = target: T25, DCAMKL2 (Homo sapiens, UniProt Q8N568); experiment: Kinome profiler screen; type: biochemical; conditions: at 20,000 nM inhibitor; kinase activity remaining
T25 construct: purchased Millipore KinaseProfiler

[28] = target: T26, CHK2(I157T) (Homo sapiens, UniProt O96017, I157T); experiment: Kinome profiler screen; type: biochemical; conditions: at 20,000 nM inhibitor; kinase activity remaining
T26 construct: purchased Millipore KinaseProfiler

[29] = target: T27, TAK1 (Homo sapiens, UniProt O43318); experiment: Kinome profiler screen; type: biochemical; conditions: at 20,000 nM inhibitor; kinase activity remaining
T27 construct: purchased Millipore KinaseProfiler

[30] = target: T28, CDK5/p25 (Homo sapiens, UniProt Q00535); experiment: Kinome profiler screen; type: biochemical; conditions: at 20,000 nM inhibitor; kinase activity remaining
T28 construct: purchased Millipore KinaseProfiler

[31] = target: T29, HIPK3 (Homo sapiens, UniProt Q9H422); experiment: Kinome profiler screen; type: biochemical; conditions: at 20,000 nM inhibitor; kinase activity remaining
T29 construct: purchased Millipore KinaseProfiler

[32] = target: T30, EphA2 (Homo sapiens, UniProt P29317); experiment: Kinome profiler screen; type: biochemical; conditions: at 20,000 nM inhibitor; kinase activity remaining
T30 construct: purchased Millipore KinaseProfiler

[33] = target: T31, TLK2 (Homo sapiens, UniProt Q86UE8); experiment: Kinome profiler screen; type: biochemical; conditions: at 20,000 nM inhibitor; kinase activity remaining
T31 construct: purchased Millipore KinaseProfiler

[34] = target: T32, CHK2 (Homo sapiens, UniProt O96017); experiment: Kinome profiler screen; type: biochemical; conditions: at 20,000 nM inhibitor; kinase activity remaining
T32 construct: purchased Millipore KinaseProfiler

[35] = target: T33, Src(1-530) (Homo sapiens, UniProt P12931); experiment: Kinome profiler screen; type: biochemical; conditions: at 20,000 nM inhibitor; kinase activity remaining
T33 construct: purchased Millipore KinaseProfiler

[36] = target: T34, EphA1 (Homo sapiens, UniProt P21709); experiment: Kinome profiler screen; type: biochemical; conditions: at 20,000 nM inhibitor; kinase activity remaining
T34 construct: purchased Millipore KinaseProfiler

[37] = target: T35, Aurora-B (Homo sapiens, UniProt Q96GD4); experiment: Kinome profiler screen; type: biochemical; conditions: at 20,000 nM inhibitor; kinase activity remaining
T35 construct: purchased Millipore KinaseProfiler

T22 sequence (O96017 whole entry R145W): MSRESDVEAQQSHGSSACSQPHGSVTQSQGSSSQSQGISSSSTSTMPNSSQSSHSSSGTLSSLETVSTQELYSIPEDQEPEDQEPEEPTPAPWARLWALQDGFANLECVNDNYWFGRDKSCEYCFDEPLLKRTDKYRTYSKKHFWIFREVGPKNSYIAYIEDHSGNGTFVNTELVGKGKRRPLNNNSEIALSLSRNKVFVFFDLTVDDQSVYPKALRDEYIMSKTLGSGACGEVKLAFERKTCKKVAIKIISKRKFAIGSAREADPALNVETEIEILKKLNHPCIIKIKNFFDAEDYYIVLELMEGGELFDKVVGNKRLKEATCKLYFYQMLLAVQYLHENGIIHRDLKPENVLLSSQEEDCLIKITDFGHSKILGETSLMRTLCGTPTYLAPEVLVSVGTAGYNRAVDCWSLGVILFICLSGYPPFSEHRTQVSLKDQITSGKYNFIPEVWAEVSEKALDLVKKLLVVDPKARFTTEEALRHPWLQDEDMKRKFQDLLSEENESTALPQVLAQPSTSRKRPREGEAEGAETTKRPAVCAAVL
T14 sequence (P22607 23-806): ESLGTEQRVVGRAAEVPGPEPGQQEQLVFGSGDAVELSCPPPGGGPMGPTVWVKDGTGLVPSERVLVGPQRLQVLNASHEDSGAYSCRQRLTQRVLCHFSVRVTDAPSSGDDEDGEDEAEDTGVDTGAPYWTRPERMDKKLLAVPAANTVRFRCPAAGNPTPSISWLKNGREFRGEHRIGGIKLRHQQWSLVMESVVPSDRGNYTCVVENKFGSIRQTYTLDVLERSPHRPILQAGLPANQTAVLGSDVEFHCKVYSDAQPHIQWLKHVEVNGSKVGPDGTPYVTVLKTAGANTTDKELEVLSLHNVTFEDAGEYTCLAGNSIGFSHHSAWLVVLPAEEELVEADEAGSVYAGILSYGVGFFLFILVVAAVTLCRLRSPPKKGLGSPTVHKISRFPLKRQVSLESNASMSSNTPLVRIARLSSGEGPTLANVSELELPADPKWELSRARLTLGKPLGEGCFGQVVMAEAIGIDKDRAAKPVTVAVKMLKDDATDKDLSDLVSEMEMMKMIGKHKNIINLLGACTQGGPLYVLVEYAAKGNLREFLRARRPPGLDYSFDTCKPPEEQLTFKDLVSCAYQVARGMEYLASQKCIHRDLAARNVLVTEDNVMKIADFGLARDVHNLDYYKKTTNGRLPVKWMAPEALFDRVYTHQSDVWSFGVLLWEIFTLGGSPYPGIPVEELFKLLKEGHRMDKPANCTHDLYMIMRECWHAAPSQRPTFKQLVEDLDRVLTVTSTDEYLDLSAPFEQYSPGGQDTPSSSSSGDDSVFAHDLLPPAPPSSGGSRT
T28 sequence (Q00535 whole entry): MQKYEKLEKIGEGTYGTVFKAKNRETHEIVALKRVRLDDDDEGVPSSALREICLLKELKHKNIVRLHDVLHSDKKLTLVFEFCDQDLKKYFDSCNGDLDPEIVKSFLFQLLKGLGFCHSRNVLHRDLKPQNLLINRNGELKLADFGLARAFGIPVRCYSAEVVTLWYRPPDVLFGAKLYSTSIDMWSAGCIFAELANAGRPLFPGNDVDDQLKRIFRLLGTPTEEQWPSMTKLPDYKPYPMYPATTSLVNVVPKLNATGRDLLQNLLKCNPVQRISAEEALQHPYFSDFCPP
T28 sequence (Q15078 99-307 partner limits assumed): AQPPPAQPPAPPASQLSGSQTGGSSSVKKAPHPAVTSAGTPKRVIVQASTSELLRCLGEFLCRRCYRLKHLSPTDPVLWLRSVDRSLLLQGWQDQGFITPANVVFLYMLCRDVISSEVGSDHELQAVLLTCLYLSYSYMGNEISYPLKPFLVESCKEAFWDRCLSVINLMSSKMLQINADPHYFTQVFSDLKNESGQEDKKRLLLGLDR
T24 sequence (Q96RG2 whole entry): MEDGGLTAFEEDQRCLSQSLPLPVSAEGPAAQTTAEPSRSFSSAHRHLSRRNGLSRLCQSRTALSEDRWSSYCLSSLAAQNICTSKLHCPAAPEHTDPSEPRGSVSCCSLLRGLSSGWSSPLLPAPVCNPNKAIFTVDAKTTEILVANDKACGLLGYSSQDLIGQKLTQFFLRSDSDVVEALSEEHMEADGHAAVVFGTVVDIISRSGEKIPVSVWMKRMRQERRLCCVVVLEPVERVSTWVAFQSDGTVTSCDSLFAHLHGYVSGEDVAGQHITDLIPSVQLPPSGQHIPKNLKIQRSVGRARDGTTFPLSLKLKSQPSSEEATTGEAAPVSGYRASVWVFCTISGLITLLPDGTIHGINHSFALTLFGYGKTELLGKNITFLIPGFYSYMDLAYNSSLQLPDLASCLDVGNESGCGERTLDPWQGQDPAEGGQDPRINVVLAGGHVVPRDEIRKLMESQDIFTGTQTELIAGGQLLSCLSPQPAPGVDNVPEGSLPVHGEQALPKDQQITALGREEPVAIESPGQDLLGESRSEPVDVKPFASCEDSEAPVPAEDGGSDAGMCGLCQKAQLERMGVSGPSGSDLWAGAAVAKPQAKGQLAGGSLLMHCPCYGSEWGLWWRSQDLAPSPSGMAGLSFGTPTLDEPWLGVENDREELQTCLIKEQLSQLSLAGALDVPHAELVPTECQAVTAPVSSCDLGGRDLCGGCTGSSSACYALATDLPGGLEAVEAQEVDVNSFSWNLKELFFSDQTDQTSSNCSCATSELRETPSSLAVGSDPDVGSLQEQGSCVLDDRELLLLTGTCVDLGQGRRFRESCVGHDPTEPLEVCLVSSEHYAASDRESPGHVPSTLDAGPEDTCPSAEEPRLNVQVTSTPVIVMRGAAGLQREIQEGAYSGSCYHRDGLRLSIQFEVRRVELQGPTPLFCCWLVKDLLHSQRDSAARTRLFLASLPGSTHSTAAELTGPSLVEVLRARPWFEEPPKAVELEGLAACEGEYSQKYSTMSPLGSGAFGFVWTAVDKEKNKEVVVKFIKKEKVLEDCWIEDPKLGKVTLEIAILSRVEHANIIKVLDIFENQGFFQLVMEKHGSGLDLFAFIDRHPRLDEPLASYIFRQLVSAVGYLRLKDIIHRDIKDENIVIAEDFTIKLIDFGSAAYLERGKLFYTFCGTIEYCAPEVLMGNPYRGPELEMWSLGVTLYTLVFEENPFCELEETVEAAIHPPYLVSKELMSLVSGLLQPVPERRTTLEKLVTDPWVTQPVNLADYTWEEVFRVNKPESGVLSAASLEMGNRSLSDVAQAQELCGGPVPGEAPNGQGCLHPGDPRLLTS
T5 sequence (P16234 24-1089): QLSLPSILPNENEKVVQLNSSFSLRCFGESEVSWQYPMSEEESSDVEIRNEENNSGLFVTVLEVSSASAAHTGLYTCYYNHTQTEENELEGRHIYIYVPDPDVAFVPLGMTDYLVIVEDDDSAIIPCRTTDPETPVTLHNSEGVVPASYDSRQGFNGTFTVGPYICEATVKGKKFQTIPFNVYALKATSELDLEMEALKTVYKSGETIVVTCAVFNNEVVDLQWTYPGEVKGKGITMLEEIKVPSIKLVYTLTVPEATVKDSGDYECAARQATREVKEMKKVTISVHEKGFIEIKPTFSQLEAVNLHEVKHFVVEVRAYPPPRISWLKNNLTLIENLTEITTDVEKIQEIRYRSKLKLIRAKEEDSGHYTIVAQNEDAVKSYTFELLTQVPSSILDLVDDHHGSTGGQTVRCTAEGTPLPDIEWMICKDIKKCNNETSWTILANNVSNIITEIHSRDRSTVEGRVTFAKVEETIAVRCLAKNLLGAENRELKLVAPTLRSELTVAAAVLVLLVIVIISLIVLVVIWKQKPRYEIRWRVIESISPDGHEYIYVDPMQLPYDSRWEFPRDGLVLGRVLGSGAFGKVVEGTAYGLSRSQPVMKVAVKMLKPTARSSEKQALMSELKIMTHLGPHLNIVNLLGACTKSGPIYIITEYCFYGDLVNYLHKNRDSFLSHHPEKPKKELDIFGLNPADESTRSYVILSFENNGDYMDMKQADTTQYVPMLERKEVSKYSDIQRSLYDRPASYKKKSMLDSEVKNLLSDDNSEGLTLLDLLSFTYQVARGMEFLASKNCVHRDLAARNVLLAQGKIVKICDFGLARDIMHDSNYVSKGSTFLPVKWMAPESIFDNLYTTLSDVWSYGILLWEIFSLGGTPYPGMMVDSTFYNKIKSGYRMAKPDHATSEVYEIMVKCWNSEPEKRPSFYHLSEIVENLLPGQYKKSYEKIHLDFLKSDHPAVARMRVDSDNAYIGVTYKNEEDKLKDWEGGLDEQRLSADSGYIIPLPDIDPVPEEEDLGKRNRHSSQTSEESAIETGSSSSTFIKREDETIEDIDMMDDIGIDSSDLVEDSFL
T9 sequence (Q8TDX7 whole entry): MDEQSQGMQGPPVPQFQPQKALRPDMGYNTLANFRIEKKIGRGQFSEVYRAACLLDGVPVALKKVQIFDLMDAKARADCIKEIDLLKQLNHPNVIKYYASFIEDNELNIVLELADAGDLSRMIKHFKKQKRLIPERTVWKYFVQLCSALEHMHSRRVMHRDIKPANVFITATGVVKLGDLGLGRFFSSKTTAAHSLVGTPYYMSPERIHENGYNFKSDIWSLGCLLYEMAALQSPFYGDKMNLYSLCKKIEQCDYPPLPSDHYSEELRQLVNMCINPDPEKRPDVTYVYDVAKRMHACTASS
T10 sequence (Q9UEE5 whole entry): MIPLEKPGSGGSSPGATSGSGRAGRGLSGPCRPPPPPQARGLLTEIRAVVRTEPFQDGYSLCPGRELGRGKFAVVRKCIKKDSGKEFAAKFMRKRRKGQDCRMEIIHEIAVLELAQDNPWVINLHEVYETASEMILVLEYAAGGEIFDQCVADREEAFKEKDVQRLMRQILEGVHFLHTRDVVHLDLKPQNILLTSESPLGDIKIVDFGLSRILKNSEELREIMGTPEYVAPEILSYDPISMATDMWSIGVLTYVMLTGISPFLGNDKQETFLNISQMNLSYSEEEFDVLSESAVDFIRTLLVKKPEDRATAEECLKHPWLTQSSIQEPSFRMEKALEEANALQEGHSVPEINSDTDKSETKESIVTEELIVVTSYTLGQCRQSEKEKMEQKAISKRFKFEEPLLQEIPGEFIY
T26 sequence (O96017 whole entry I157T): as the sequence (O96017 whole entry R145W) above, with W145R, I157T counted along it
T32 sequence (O96017 whole entry): as the sequence (O96017 whole entry R145W) above, with W145R counted along it

`CN(C)c1cc(-c2ccncc2)c(-c2cccc3ccccc23)nn1` [MW181, N,N-dimethyl-6-(naphthalen-1-yl)-5-(pyridin-4-yl)pyridazin-3-amine] showed an activity at 20 µM [1] of 95%, an activity at 20 µM [2] of 101% and an activity at 20 µM [3] of 112%. The activity at 20 µM [4] was 101%, the activity at 20 µM [5] was 103% and the “cued learning” value [6] was “No difference was detected between groups”. For the same compound, the “contextual fear memory deficit” value [6] was “ameliorated the contextual fear memory deficit”, the activity at 20 µM [7] was 98% and the activity at 20 µM [8] was 101%. The activity at 20 µM [9] was 93%, the activity at 20 µM [10] was 102% and the activity at 20 µM [11] was 113%. The activity at 20 µM [12] was 108%, the activity at 20 µM [13] was 118% and the activity at 20 µM [14] was 94%. For the same compound, the activity at 20 µM [15] was 118%, the activity at 20 µM [16] was 92% and the activity at 20 µM [17] was 88%. For the same compound, the activity at 20 µM [18] was 102%, the activity at 20 µM [19] was 92% and the activity at 20 µM [20] was 106%. For the same compound, the activity at 20 µM [21] was 102%, the “Aqueous Solubility (37ºC), HCl hydrate” value ([22]; hydrochloride hydrate form, 24 h) was roughly 800 mM and the solubility at 24 h ([22]; compound (not the salt), 24 h, read-out: Aqueous Solubility (37ºC)) was 0.205 mM. The solubility at 24 h ([22]; hydrochloride hydrate form, 24 h, read-out: Aqueous Solubility (37ºC), HCl hydrate) was 840 mM (≈ 274 mg/mL), the activity at 20 µM [23] was 102% and the activity at 20 µM [24] was 91%. The activity at 20 µM [25] was 106%, the activity at 20 µM [26] was 97% and the activity at 20 µM [27] was 101%. For the same compound, the activity at 20 µM [28] was 100%, the activity at 20 µM [29] was 104% and the activity at 20 µM [30] was 99%. For the same compound, the activity at 20 µM [31] was 95%, the activity at 20 µM [32] was 91% and the activity at 20 µM [33] was 107%. It also gave an activity at 20 µM [34] of 96%, an activity at 20 µM [35] of 98% and an activity at 20 µM [36] of 76%. The activity at 20 µM [37] was 114%.

For `CN(C)c1cc(-c2ccncc2)c(-c2ccc3ccccc3c2)nn1` [MW108, N, N-dimethyl-6-(naphthalen-2-yl)-5-(pyridin-4-yl)pyridazin-3-amine], the activity at 20 µM [1] was 91%, the activity at 20 µM [2] was 102% and the activity at 20 µM [3] was 100%. For the same compound, the activity at 20 µM [4] was 85%, the activity at 20 µM [5] was 106% and the “cued learning” value [6] was “No difference was detected between groups”. For the same compound, the “contextual fear memory deficit” value [6] was “ameliorated the contextual fear memory deficit”, the activity at 20 µM [7] was 108% and the activity at 20 µM [8] was 100%. For the same compound, the activity at 20 µM [9] was 100%, the activity at 20 µM [10] was 108% and the activity at 20 µM [11] was 86%. It also gave an activity at 20 µM [12] of 109%, an activity at 20 µM [13] of 108% and an activity at 20 µM [14] of 105%. For the same compound, the activity at 20 µM [15] was 86%, the activity at 20 µM [16] was 103% and the activity at 20 µM [17] was 73%. The activity at 20 µM [18] was 97%, the activity at 20 µM [19] was 101% and the activity at 20 µM [20] was 95%. The activity at 20 µM [21] was 98%, the solubility at 24 h ([22]; Aqueous Solubility (37 °C)) was 0.058 mM (≈ 0.0189 mg/mL) and the solubility at 24 h ([22]; Aqueous Solubility (37 °C), HCl hydrate) was 370 mM (≈ 121 mg/mL). The “Aqueous Solubility (37ºC), HCl hydrate” value ([22]; 24 h) was roughly 400 mM, the activity at 20 µM [23] was 94% and the activity at 20 µM [24] was 97%. For the same compound, the activity at 20 µM [25] was 104%, the activity at 20 µM [26] was 88% and the activity at 20 µM [27] was 109%. It also gave an activity at 20 µM [28] of 101%, an activity at 20 µM [29] of 102% and an activity at 20 µM [30] of 106%. For the same compound, the activity at 20 µM [31] was 104%, the activity at 20 µM [32] was 83% and the activity at 20 µM [33] was 99%. For the same compound, the activity at 20 µM [34] was 97%, the activity at 20 µM [35] was 101% and the activity at 20 µM [36] was 97%. For the same compound, the activity at 20 µM [37] was 134%.
